Assay results from ChEMBL document CHEMBL5303573, “Mapping human microbiome drug metabolism by gut bacteria and their genes” (Nature, 2019).

assay: The drug is tested on Bacteroides coprophilus strain: DSM18228 for biotransformation. The drug concentrations were measured before and after a 12-h incubation by liquid-chromatography-coupled mass spectrometry (LC–MS); conditions: 2 µM

Compound	Bacterial Biotransformation
CN(C)CCOC(c1ccc(Cl)cc1)c1ccccn1.O=C(O)/C=C\C(=O)O (stereo not given) [CARBINOXAMINE MALEATE]	Compound NOT metabolized
C[N+]12CCC(CC1)C(OC(=O)C(O)(c1ccccc1)c1ccccc1)C2.[Br-] (stereo not given) [CLIDINIUM BROMIDE]	Compound NOT metabolized
c1ccc([C@H]2CN3CCSC3=N2)cc1 [LEVAMISOLE]	Compound metabolized

assay: The drug is tested on Bacteroides dorei strain: DSM17855 for biotransformation. The drug concentrations were measured before and after a 12-h incubation by liquid-chromatography-coupled mass spectrometry (LC–MS); conditions: phocaeicola dorei, 2 µM

Compound	Bacterial Biotransformation
CN(C)CCOC(c1ccc(Cl)cc1)c1ccccn1.O=C(O)/C=C\C(=O)O (stereo not given) [CARBINOXAMINE MALEATE]	Compound NOT metabolized
C[N+]12CCC(CC1)C(OC(=O)C(O)(c1ccccc1)c1ccccc1)C2.[Br-] (stereo not given) [CLIDINIUM BROMIDE]	Compound NOT metabolized
c1ccc([C@H]2CN3CCSC3=N2)cc1 [LEVAMISOLE]	Compound metabolized

assay: The drug is tested on Bacteroides ovatus strain: ATCC8483 for biotransformation. The drug concentrations were measured before and after a 12-h incubation by liquid-chromatography-coupled mass spectrometry (LC–MS); conditions: 2 µM

Compound	Bacterial Biotransformation
CN(C)CCOC(c1ccc(Cl)cc1)c1ccccn1.O=C(O)/C=C\C(=O)O (stereo not given) [CARBINOXAMINE MALEATE]	Compound NOT metabolized
C[N+]12CCC(CC1)C(OC(=O)C(O)(c1ccccc1)c1ccccc1)C2.[Br-] (stereo not given) [CLIDINIUM BROMIDE]	Compound NOT metabolized
c1ccc([C@H]2CN3CCSC3=N2)cc1 [LEVAMISOLE]	Compound metabolized

assay: The drug is tested on Bacteroides pectinophilus strain: ATCC43243 for biotransformation. The drug concentrations were measured before and after a 12-h incubation by liquid-chromatography-coupled mass spectrometry (LC–MS); conditions: 2 µM

Compound	Bacterial Biotransformation
CN(C)CCOC(c1ccc(Cl)cc1)c1ccccn1.O=C(O)/C=C\C(=O)O (stereo not given) [CARBINOXAMINE MALEATE]	Compound NOT metabolized
CC(C)NCC(O)COc1ccc(CC(N)=O)cc1 (stereo not given) [ATENOLOL]	Compound NOT metabolized

assay: The drug is tested on Bacteroides uniformis strain: ATCC8492 for biotransformation. The drug concentrations were measured before and after a 12-h incubation by liquid-chromatography-coupled mass spectrometry (LC–MS); conditions: 2 µM

Compound	Bacterial Biotransformation
CN(C)CCOC(c1ccc(Cl)cc1)c1ccccn1.O=C(O)/C=C\C(=O)O (stereo not given) [CARBINOXAMINE MALEATE]	Compound NOT metabolized
C[N+]12CCC(CC1)C(OC(=O)C(O)(c1ccccc1)c1ccccc1)C2.[Br-] (stereo not given) [CLIDINIUM BROMIDE]	Compound NOT metabolized
c1ccc([C@H]2CN3CCSC3=N2)cc1 [LEVAMISOLE]	Compound metabolized

assay: The drug is tested on Parabacteroides merdae strain: ATCC43184 for biotransformation. The drug concentrations were measured before and after a 12-h incubation by liquid-chromatography-coupled mass spectrometry (LC–MS); conditions: 2 µM

Compound	Bacterial Biotransformation
CN(C)CCOC(c1ccc(Cl)cc1)c1ccccn1.O=C(O)/C=C\C(=O)O (stereo not given) [CARBINOXAMINE MALEATE]	Compound NOT metabolized
C[N+]12CCC(CC1)C(OC(=O)C(O)(c1ccccc1)c1ccccc1)C2.[Br-] (stereo not given) [CLIDINIUM BROMIDE]	Compound NOT metabolized
c1ccc([C@H]2CN3CCSC3=N2)cc1 [LEVAMISOLE]	Compound NOT metabolized

assay: The drug is tested on Anaerococcus hydrogenalis strain: DSM7454 for biotransformation. The drug concentrations were measured before and after a 12-h incubation by liquid-chromatography-coupled mass spectrometry (LC–MS); conditions: 2 µM

Compound	Bacterial Biotransformation
CN(C)CCOC(c1ccc(Cl)cc1)c1ccccn1.O=C(O)/C=C\C(=O)O (stereo not given) [CARBINOXAMINE MALEATE]	Compound NOT metabolized
C[N+]12CCC(CC1)C(OC(=O)C(O)(c1ccccc1)c1ccccc1)C2.[Br-] (stereo not given) [CLIDINIUM BROMIDE]	Compound NOT metabolized
CC(C)NCC(O)COc1ccc(CC(N)=O)cc1 (stereo not given) [ATENOLOL]	Compound NOT metabolized
c1ccc([C@H]2CN3CCSC3=N2)cc1 [LEVAMISOLE]	Compound metabolized

assay: The drug is tested on Anaerotruncus colihominis strain: DSM17241 for biotransformation. The drug concentrations were measured before and after a 12-h incubation by liquid-chromatography-coupled mass spectrometry (LC–MS); conditions: 2 µM

Compound	Bacterial Biotransformation
CN(C)CCOC(c1ccc(Cl)cc1)c1ccccn1.O=C(O)/C=C\C(=O)O (stereo not given) [CARBINOXAMINE MALEATE]	Compound NOT metabolized
C[N+]12CCC(CC1)C(OC(=O)C(O)(c1ccccc1)c1ccccc1)C2.[Br-] (stereo not given) [CLIDINIUM BROMIDE]	Compound NOT metabolized
CC(C)NCC(O)COc1ccc(CC(N)=O)cc1 (stereo not given) [ATENOLOL]	Compound NOT metabolized
c1ccc([C@H]2CN3CCSC3=N2)cc1 [LEVAMISOLE]	Compound metabolized

assay: The drug is tested on Clostridium ramosum strain: DSM1402 for biotransformation. The drug concentrations were measured before and after a 12-h incubation by liquid-chromatography-coupled mass spectrometry (LC–MS); conditions: thomasclavelia ramosa, 2 µM

Compound	Bacterial Biotransformation
CN(C)CCOC(c1ccc(Cl)cc1)c1ccccn1.O=C(O)/C=C\C(=O)O (stereo not given) [CARBINOXAMINE MALEATE]	Compound NOT metabolized

assay: The drug is tested on Enterococcus faecalis strain: V583 for biotransformation. The drug concentrations were measured before and after a 12-h incubation by liquid-chromatography-coupled mass spectrometry (LC–MS); conditions: 2 µM

Compound	Bacterial Biotransformation
CN(C)CCOC(c1ccc(Cl)cc1)c1ccccn1.O=C(O)/C=C\C(=O)O (stereo not given) [CARBINOXAMINE MALEATE]	Compound NOT metabolized
C[N+]12CCC(CC1)C(OC(=O)C(O)(c1ccccc1)c1ccccc1)C2.[Br-] (stereo not given) [CLIDINIUM BROMIDE]	Compound NOT metabolized
CC(C)NCC(O)COc1ccc(CC(N)=O)cc1 (stereo not given) [ATENOLOL]	Compound NOT metabolized
c1ccc([C@H]2CN3CCSC3=N2)cc1 [LEVAMISOLE]	Compound NOT metabolized

assay: The drug is tested on Eubacterium rectale strain: ATCC33656 for biotransformation. The drug concentrations were measured before and after a 12-h incubation by liquid-chromatography-coupled mass spectrometry (LC–MS); conditions: agathobacter rectalis, 2 µM

Compound	Bacterial Biotransformation
CC(C)NCC(O)COc1ccc(CC(N)=O)cc1 (stereo not given) [ATENOLOL]	Compound NOT metabolized
c1ccc([C@H]2CN3CCSC3=N2)cc1 [LEVAMISOLE]	Compound NOT metabolized

assay: The drug is tested on Ruminococcus gnavus strain: ATCC29149 for biotransformation. The drug concentrations were measured before and after a 12-h incubation by liquid-chromatography-coupled mass spectrometry (LC–MS); conditions: mediterraneibacter gnavus, 2 µM

Compound	Bacterial Biotransformation
CN(C)CCOC(c1ccc(Cl)cc1)c1ccccn1.O=C(O)/C=C\C(=O)O (stereo not given) [CARBINOXAMINE MALEATE]	Compound NOT metabolized
C[N+]12CCC(CC1)C(OC(=O)C(O)(c1ccccc1)c1ccccc1)C2.[Br-] (stereo not given) [CLIDINIUM BROMIDE]	Compound NOT metabolized
CC(C)NCC(O)COc1ccc(CC(N)=O)cc1 (stereo not given) [ATENOLOL]	Compound NOT metabolized
c1ccc([C@H]2CN3CCSC3=N2)cc1 [LEVAMISOLE]	Compound NOT metabolized

assay: The drug is tested on Ruminococcus torques strain: ATCC27756 for biotransformation. The drug concentrations were measured before and after a 12-h incubation by liquid-chromatography-coupled mass spectrometry (LC–MS); format: ADME; parameters: dose 2 uM, timepoint 0 vs 12 hours; conditions: 2 µM

Compound	Bacterial Biotransformation
CN(C)CCOC(c1ccc(Cl)cc1)c1ccccn1.O=C(O)/C=C\C(=O)O (stereo not given) [CARBINOXAMINE MALEATE]	Compound NOT metabolized
CC(C)NCC(O)COc1ccc(CC(N)=O)cc1 (stereo not given) [ATENOLOL]	Compound NOT metabolized
c1ccc([C@H]2CN3CCSC3=N2)cc1 [LEVAMISOLE]	Compound NOT metabolized

assay: The drug is tested on Edwardsiella tarda strain: ATCC23685 for biotransformation. The drug concentrations were measured before and after a 12-h incubation by liquid-chromatography-coupled mass spectrometry (LC–MS); conditions: 2 µM

Compound	Bacterial Biotransformation
CN(C)CCOC(c1ccc(Cl)cc1)c1ccccn1.O=C(O)/C=C\C(=O)O (stereo not given) [CARBINOXAMINE MALEATE]	Compound NOT metabolized
C[N+]12CCC(CC1)C(OC(=O)C(O)(c1ccccc1)c1ccccc1)C2.[Br-] (stereo not given) [CLIDINIUM BROMIDE]	Compound NOT metabolized
CC(C)NCC(O)COc1ccc(CC(N)=O)cc1 (stereo not given) [ATENOLOL]	Compound NOT metabolized
c1ccc([C@H]2CN3CCSC3=N2)cc1 [LEVAMISOLE]	Compound metabolized

assay: The drug is tested on Providencia stuartii strain: ATCC25827 for biotransformation. The drug concentrations were measured before and after a 12-h incubation by liquid-chromatography-coupled mass spectrometry (LC–MS); conditions: 2 µM

Compound	Bacterial Biotransformation
CN(C)CCOC(c1ccc(Cl)cc1)c1ccccn1.O=C(O)/C=C\C(=O)O (stereo not given) [CARBINOXAMINE MALEATE]	Compound NOT metabolized
C[N+]12CCC(CC1)C(OC(=O)C(O)(c1ccccc1)c1ccccc1)C2.[Br-] (stereo not given) [CLIDINIUM BROMIDE]	Compound NOT metabolized
CC(C)NCC(O)COc1ccc(CC(N)=O)cc1 (stereo not given) [ATENOLOL]	Compound NOT metabolized
c1ccc([C@H]2CN3CCSC3=N2)cc1 [LEVAMISOLE]	Compound metabolized

conditions: bifidobacterium adolescentis, 12 h, 2 µM
Description: The drug is tested on Bifidobacterium adolescentis strain: ATCC 15703 for biotransformation. The drug concentrations were measured before and after a 12-h incubation by liquid-chromatography-coupled mass spectrometry (LC–MS)

Compound	Bacterial Biotransformation
CN(C)CCOC(c1ccc(Cl)cc1)c1ccccn1.O=C(O)/C=C\C(=O)O (stereo not given) [CARBINOXAMINE MALEATE]	Compound NOT metabolized
C[N+]12CCC(CC1)C(OC(=O)C(O)(c1ccccc1)c1ccccc1)C2.[Br-] (stereo not given) [CLIDINIUM BROMIDE]	Compound NOT metabolized
CC(C)NCC(O)COc1ccc(CC(N)=O)cc1 (stereo not given) [ATENOLOL]	Compound NOT metabolized
c1ccc([C@H]2CN3CCSC3=N2)cc1 [LEVAMISOLE]	Compound NOT metabolized

conditions: bacteroides fragilis, 12 h, 2 µM
Description: The drug is tested on Bacteroides fragilis strain: NCTC 9343 for biotransformation. The drug concentrations were measured before and after a 12-h incubation by liquid-chromatography-coupled mass spectrometry (LC–MS)

Compound	Bacterial Biotransformation
CN(C)CCOC(c1ccc(Cl)cc1)c1ccccn1.O=C(O)/C=C\C(=O)O (stereo not given) [CARBINOXAMINE MALEATE]	Compound NOT metabolized
C[N+]12CCC(CC1)C(OC(=O)C(O)(c1ccccc1)c1ccccc1)C2.[Br-] (stereo not given) [CLIDINIUM BROMIDE]	Compound NOT metabolized
CC(C)NCC(O)COc1ccc(CC(N)=O)cc1 (stereo not given) [ATENOLOL]	Compound NOT metabolized
c1ccc([C@H]2CN3CCSC3=N2)cc1 [LEVAMISOLE]	Compound metabolized

conditions: parabacteroides johnsonii, 12 h, 2 µM
Description: The drug is tested on Parabacteroides johnsonii strain: DSM18315 for biotransformation. The drug concentrations were measured before and after a 12-h incubation by liquid-chromatography-coupled mass spectrometry (LC–MS)

Compound	Bacterial Biotransformation
CN(C)CCOC(c1ccc(Cl)cc1)c1ccccn1.O=C(O)/C=C\C(=O)O (stereo not given) [CARBINOXAMINE MALEATE]	Compound NOT metabolized
C[N+]12CCC(CC1)C(OC(=O)C(O)(c1ccccc1)c1ccccc1)C2.[Br-] (stereo not given) [CLIDINIUM BROMIDE]	Compound NOT metabolized
CC(C)NCC(O)COc1ccc(CC(N)=O)cc1 (stereo not given) [ATENOLOL]	Compound NOT metabolized
c1ccc([C@H]2CN3CCSC3=N2)cc1 [LEVAMISOLE]	Compound metabolized

conditions: limosilactobacillus reuteri cf48-3a, 12 h, 2 µM
Description: The drug is tested on Lactobacillus reuteri CF48-3A strain: BEI HM-102 for biotransformation. The drug concentrations were measured before and after a 12-h incubation by liquid-chromatography-coupled mass spectrometry (LC–MS)

Compound	Bacterial Biotransformation
CC(C)NCC(O)COc1ccc(CC(N)=O)cc1 (stereo not given) [ATENOLOL]	Compound NOT metabolized
